# Test results as given in patent US20100035866A1, “NOVEL SUBSTITUTED-1, 1-DIOXO-BENZO[1,2,4]THIADIAZIN-3ONES, PREPARATION METHOD THEREOF, AND PHARMACEUTICAL COMPOSITION CONTAINING THE SAME” (KOREA RESEARCH INSTITUTE OF CHEMICAL TECHNOLOGY, priority 2006, published 2010).
# Columns and labels:
# D1 = D1 (Homo sapiens, UniProt P21728); assay: Dopamine receptor family binding: D1; conditions: read-out: Binding affinity, IC50 (nM), D1
# 5-HT2a = target: T1, 5-HT2a (Homo sapiens, UniProt P28223); assay: Radioligand binding, 5-HT receptor family: 5-HT2a ([3H]Ketanserin); conditions: CHO-K1 human recombinant receptor, [3H]Ketanserin 1 nM; read-out: Binding affinity, IC50 (nM), 5-HT2a
# T1 construct: purchased Euroscreen/BioSignal Packard Inc
# T1 sequence (P28223 whole entry): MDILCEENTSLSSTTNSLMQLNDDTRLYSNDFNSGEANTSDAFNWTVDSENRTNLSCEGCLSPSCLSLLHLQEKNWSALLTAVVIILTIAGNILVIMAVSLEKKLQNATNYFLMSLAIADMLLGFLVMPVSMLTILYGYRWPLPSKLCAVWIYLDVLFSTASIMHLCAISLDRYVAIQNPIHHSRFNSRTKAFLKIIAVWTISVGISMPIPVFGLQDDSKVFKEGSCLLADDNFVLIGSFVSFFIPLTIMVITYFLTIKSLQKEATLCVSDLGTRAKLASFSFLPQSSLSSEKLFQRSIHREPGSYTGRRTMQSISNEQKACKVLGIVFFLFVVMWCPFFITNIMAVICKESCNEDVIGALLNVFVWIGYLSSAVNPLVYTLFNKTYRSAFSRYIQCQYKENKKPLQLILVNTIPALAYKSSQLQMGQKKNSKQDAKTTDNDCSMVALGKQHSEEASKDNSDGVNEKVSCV
# 5-HT1a = target: T2, 5-HT1a (Homo sapiens, UniProt P08908); assay: Radioligand binding, 5-HT receptor family: 5-HT1a ([3H]8-OH-DPAT); conditions: CHO-K1 human recombinant receptor, [3H]8-OH-DPAT 0.5 nM; read-out: Binding affinity, IC50 (nM), 5-HT1a
# T2 construct: purchased Euroscreen/BioSignal Packard Inc
# T2 sequence (P08908 1-422): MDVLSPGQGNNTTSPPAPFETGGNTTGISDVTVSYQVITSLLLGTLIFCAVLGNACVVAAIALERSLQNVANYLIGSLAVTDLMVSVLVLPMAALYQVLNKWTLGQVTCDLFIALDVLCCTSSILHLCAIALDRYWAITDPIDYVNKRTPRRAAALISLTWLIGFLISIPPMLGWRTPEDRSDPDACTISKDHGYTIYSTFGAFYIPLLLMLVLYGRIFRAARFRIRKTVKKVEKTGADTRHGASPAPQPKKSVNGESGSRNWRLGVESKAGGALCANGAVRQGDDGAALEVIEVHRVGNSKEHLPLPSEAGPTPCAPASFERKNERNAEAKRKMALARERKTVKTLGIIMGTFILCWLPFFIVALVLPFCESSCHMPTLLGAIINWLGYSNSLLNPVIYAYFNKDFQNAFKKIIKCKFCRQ
# 5-HT2c = target: T3, 5-HT2c (Homo sapiens, UniProt P28335); assay: Radioligand binding, 5-HT receptor family: 5-HT2c ([3H]Mesulergine); conditions: CHO-K1 human recombinant receptor, [3H]Mesulergine 1 nM; read-out: Binding affinity, IC50 (nM), 5-HT2c
# T3 construct: purchased Euroscreen/BioSignal Packard Inc
# T3 sequence (P28335 33-458): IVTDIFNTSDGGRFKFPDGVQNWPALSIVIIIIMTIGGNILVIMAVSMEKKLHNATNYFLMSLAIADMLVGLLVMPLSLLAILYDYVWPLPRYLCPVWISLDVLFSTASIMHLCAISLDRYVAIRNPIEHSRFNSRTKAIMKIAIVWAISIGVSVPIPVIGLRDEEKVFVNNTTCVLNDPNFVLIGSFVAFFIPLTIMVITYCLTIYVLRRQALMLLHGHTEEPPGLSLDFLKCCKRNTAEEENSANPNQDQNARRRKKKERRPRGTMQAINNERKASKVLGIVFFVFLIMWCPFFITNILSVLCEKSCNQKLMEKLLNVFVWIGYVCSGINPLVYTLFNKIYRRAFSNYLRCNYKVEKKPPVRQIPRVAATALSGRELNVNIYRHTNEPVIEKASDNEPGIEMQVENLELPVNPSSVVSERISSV
# 5-HT7 = target: T4, 5-HT7 (Homo sapiens, UniProt P34969); assay: Radioligand binding, 5-HT receptor family: 5-HT7 ([3H]LSD); conditions: CHO-K1 human recombinant receptor, [3H]LSD 3 nM; read-out: Binding affinity, IC50 (nM), 5-HT7
# T4 construct: purchased Euroscreen/BioSignal Packard Inc
# T4 sequence (P34969 whole entry): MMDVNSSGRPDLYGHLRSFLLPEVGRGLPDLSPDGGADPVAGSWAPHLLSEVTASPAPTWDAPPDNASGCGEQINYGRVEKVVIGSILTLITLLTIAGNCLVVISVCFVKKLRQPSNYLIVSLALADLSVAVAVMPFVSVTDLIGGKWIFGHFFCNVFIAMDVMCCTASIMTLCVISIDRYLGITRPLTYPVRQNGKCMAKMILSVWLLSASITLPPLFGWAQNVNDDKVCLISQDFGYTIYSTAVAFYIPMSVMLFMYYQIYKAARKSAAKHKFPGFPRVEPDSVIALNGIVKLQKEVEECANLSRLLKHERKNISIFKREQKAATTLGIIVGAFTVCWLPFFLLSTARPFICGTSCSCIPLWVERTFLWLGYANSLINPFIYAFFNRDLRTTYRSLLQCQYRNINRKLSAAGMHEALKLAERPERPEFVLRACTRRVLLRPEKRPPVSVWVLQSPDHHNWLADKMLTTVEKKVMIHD
# Experimental: Radioligand bindings were performed according to the test method provided by the supplier of receptor membrane (Euroscreen/BioSignal Packard Inc.). The detailed assay conditions and the results were shown in the following Table 3 and Table 4, respectively.
# [1] = target: Human serotonin 5-HT6 receptor (Homo sapiens, UniProt P50406); assay: [3H]LSD binding assay on cloned 5-HT6 receptor; conditions: IC50 (nM)
# Human serotonin 5-HT6 receptor, sequence (P50406 whole entry): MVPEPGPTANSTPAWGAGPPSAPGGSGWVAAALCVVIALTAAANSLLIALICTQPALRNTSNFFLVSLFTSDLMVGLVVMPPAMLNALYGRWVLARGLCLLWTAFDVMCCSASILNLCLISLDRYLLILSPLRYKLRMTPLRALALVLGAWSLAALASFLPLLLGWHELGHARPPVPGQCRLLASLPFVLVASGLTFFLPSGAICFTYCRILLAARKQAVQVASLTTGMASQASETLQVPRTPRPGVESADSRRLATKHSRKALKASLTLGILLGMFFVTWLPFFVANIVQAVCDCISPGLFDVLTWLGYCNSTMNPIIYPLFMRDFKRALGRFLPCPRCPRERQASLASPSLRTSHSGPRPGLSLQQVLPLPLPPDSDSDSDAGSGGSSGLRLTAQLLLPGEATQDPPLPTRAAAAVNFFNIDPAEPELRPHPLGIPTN
# hD3 receptor = target: T5, hD3 receptor (Homo sapiens, UniProt P35462); assay: Dopamine receptor family binding: D3 ([3H]spiperone); conditions: [3H]spiperone 1 nM; read-out: Binding affinity, IC50 (nM), D3
# T5 construct: purchased BioSignal Packard Inc., Montreal, Canada
# T5 sequence (P35462 whole entry): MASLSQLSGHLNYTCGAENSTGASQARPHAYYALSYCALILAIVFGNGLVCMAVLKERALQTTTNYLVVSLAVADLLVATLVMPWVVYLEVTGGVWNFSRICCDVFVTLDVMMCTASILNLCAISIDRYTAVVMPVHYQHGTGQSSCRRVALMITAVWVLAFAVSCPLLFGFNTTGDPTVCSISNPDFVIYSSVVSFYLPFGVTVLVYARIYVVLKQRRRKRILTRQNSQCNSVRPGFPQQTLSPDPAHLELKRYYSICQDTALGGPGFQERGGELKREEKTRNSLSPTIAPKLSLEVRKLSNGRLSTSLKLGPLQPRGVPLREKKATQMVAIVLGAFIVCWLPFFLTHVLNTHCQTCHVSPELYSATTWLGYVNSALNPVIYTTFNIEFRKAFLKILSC
# hD4.2 receptor = target: T6, hD4.2 receptor (Homo sapiens, UniProt P21917, DEL265-296); assay: Dopamine receptor family binding: D4 ([3H]YM-09151-2); conditions: [3H]YM-09151-2 0.06 nM; read-out: Binding affinity, IC50 (nM), D4
# T6 construct: purchased BioSignal Packard Inc., Montreal, Canada
# T6 sequence (P21917 with tags, fused parts or gaps DEL265-296): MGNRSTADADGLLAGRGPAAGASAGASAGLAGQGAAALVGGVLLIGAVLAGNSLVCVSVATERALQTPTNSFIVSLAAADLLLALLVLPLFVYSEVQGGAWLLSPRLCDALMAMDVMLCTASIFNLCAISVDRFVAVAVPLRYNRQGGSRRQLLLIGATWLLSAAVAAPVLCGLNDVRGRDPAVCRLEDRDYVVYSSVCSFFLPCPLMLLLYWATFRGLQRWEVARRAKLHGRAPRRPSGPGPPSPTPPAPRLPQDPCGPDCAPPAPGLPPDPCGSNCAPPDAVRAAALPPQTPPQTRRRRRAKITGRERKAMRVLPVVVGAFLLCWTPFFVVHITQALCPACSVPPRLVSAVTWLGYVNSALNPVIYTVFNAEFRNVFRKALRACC
# Experimental: (§1) 2-2: Binding Assays of Dopamine Receptor Family
# (§2) The radioligands used were [^3H]spiperone (for hD2L and hD3 receptors, 1 nM) and [^3H] YM-09151-2 (for hD4.2 receptor, 0.06 nM). Radioligand bindings were performed by the protocols provided by the supplier of receptor membranes (BioSignal Packard Inc., Montreal, Canada). Briefly, the buffer used in D2 or D3 receptor binding assay was 50 mM Tris-HCl (pH 7.4), 10 mM MgCl2, 1 mM EDTA, or 50 mM Tris-HCl (pH 7.4), 5 mM MgCl2 5 mM EDTA, 5 mM KCl, 1.5 mM CaCl2, 120 mM NaCl, respectively. In [^3H] YM-09151-2 receptor binding assays, the buffer containing 50 mM Tris-HCl (pH 7.4), 5 mM MgCl2, 5 mM EDTA, 5 mM KCl and 1.5 mM CaCl2 was used. […] Competition binding studies were carried out with 7-8 concentrations of the test compound run in duplicate tubes, and isotherms from three assays were calculated by computerized nonlinear regression analysis (GraphPad Prism Program, San Diego, […]) to yield median inhibitory concentration (IC50) values.
# hD2L receptor = target: T7, hD2L receptor (Homo sapiens, UniProt P14416); assay: Dopamine receptor family binding: D2 ([3H]spiperone); conditions: [3H]spiperone 1 nM; read-out: Binding affinity, IC50 (nM), D2
# T7 construct: purchased BioSignal Packard Inc., Montreal, Canada
# T7 sequence (P14416 whole entry): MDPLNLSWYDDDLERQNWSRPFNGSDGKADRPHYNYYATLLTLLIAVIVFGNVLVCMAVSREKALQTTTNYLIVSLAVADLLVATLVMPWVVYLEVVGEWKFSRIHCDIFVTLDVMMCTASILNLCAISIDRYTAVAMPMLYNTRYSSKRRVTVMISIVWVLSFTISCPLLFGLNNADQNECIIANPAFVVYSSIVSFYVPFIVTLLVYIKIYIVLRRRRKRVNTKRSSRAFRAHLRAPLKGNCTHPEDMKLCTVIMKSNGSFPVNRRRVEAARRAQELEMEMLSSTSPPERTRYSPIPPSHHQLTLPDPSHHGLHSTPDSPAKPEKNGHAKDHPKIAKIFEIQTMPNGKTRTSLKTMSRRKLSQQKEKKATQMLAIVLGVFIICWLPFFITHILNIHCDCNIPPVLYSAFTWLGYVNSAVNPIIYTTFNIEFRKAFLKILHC
# Experimental: as §1, §2
# [2] = Binding affinity, 5-HT6, Table 4
# [3] = binding affinity to the 5-HT6 receptor, Table 2, 1.87 nM [3H]LSD, cloned human receptor membranes from Sf21 cells, 37° C. 60 min
# D1, sequence (P21728 whole entry): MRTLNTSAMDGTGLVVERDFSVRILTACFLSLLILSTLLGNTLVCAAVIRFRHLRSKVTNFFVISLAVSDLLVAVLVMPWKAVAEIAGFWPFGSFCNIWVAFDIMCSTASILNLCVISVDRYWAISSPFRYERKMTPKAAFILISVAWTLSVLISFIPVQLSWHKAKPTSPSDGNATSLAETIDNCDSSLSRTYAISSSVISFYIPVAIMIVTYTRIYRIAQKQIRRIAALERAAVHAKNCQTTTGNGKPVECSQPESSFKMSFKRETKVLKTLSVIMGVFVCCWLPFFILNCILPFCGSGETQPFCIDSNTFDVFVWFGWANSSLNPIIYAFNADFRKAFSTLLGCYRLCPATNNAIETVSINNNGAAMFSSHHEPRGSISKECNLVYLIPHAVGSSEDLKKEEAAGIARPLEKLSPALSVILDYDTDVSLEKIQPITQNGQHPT
Structure (SMILES),IC50 (D1),IC50 (5-HT2a),melting point,IC50 (5-HT1a),IC50 (5-HT2c),IC50 (5-HT7),"IC50 [1, 2]","IC50 [1, 3]",IC50 (hD3 receptor),IC50 (hD4.2 receptor),IC50 (hD2L receptor)
"COc1cccc(CN2C(=O)N(Cc3ccccc3)c3cc(Cl)cc(N4CCN(C)CC4)c3S2(=O)=O)c1 [Example 17, 4-Benzyl-6-chloro-2-(3-methoxy-benzyl)-8-(4-methyl-piperazin-1-yl)-1,1-dioxo-1,4-dihydro-2H-1λ^6-benzo[1,2,4]thiadiazin-3-one]",4730 nM,318 nM,85 to 86 °C,1950 nM,899 nM,> 10000 nM,10.9 nM,10.6 nM,537 nM,> 10000 nM,4860 nM
"C[C@@H](c1ccccc1)N1C(=O)N(Cc2ccccc2)c2cc(Cl)cc(N3CCN(C)CC3)c2S1(=O)=O [Example 26, 4-Benzyl-6-chloro-8-(4-methyl-piperazin-1-yl)-1,1-dioxo-2-[(S)-1-phenyl-ethyl]-1,4-dihydro-2H-1λ^6-benzo[1,2,4]thiadiazin-3-one]",1760 nM,145 nM,,589 nM,183 nM,8250 nM,2.4 nM,2.4 nM,715 nM,> 10000 nM,6580 nM
"CN1CCN(c2cc(Cl)cc3c2S(=O)(=O)N(c2ccccc2)C(=O)N3Cc2ccccc2)CC1 [Example 27, 4-Benzyl-6-chloro-8-(4-methyl-piperazin-1-yl)-1,1-dioxo-2-phenyl-1,4-dihydro-2H-1λ^6-benzo[1,2,4]thiadiazin-3-one]",2690 nM,4310 nM,,2080 nM,2580 nM,> 10000 nM,3.8 nM,3.8 nM,5950 nM,> 10000 nM,> 10000 nM
"Cc1cc(C)cc(CCCN2C(=O)N(Cc3ccccc3)c3cc(Cl)cc(N4CCN(C)CC4)c3S2(=O)=O)c1 [Example 38, 4-Benzyl-6-chloro-2-[3-(3,5-dimethyl-phenyl)-propyl]-8-(4-methyl-piperazin-1-yl)-1,1-dioxo-1,4-dihydro-2H-1λ^6-benzo[1,2,4]thiadiazin-3-one]",918 nM,359 nM,,3420 nM,508 nM,9140 nM,0.6 nM,0.6 nM,336 nM,> 10000 nM,> 10000 nM
"COc1cccc(CN2C(=O)N(Cc3ccccc3)c3cc(Cl)cc(N4CCNCC4)c3S2(=O)=O)c1 [Example 52, 4-Benzyl-6-chloro-2-(3-methoxy-benzyl)-1,1-dioxo-8-piperazin-1-yl-1,4-dihydro-2H-1λ^6-benzo[1,2,4]thiadiazin-3-one]",3140 nM,1000 nM,98 to 100 °C,1860 nM,1350 nM,6780 nM,2 nM,5.8 nM,531 nM,> 10000 nM,3220 nM
"COc1ccc(CN2C(=O)N(Cc3ccccc3)c3cc(Cl)cc(N4CCNCC4)c3S2(=O)=O)cc1 [Example 53, 4-Benzyl-6-chloro-2-(4-methoxy-benzyl)-1,1-dioxo-8-piperazin-1-yl-1,4-dihydro-2H-1λ^6-benzo[1,2,4]thiadiazin-3-one]",> 10000 nM,651 nM,,3260 nM,961 nM,6580 nM,11.8 nM,11.8 nM,844 nM,> 10000 nM,2440 nM
"O=C1N(Cc2ccccc2)c2cc(Cl)cc(N3CCNCC3)c2S(=O)(=O)N1Cc1cccc(O)c1 [Example 54, 4-Benzyl-6-chloro-2-(3-hydroxy-benzyl)-1,1-dioxo-8-piperazin-1-yl-1,4-dihydro-2H-1λ^6-benzo[1,2,4]thiadiazin-3-one]",4100 nM,1150 nM,230 to 231 °C,621 nM,1800 nM,> 10000 nM,5.8 nM,1 nM,804 nM,> 10000 nM,2280 nM
"C[C@H](c1ccccc1)N1C(=O)N(Cc2ccccc2)c2cc(Cl)cc(N3CCNCC3)c2S1(=O)=O [Example 58, 4-Benzyl-6-chloro-1,1-dioxo-2-[(R)-1-phenyl-ethyl]-8-piperazin-1-yl-1,4-dihydro-2H-1λ^6-benzo[1,2,4]thiadiazin-3-one]",1780 nM,549 nM,,> 10000 nM,424 nM,6390 nM,2.3 nM,2.3 nM,398 nM,> 10000 nM,4500 nM
"C[C@@H](c1ccccc1)N1C(=O)N(Cc2ccccc2)c2cc(Cl)cc(N3CCNCC3)c2S1(=O)=O [Example 59, 4-Benzyl-6-chloro-1,1-dioxo-2-[(S)-1-phenyl-ethyl]-8-piperazin-1-yl-1,4-dihydro-2H-1λ^6-benzo[1,2,4]thiadiazin-3-one]",4100 nM,272 nM,,1400 nM,508 nM,2300 nM,3 nM,3 nM,403 nM,> 10000 nM,4640 nM
"COc1cccc(N2C(=O)N(Cc3ccccc3)c3cc(Cl)cc(N4CCNCC4)c3S2(=O)=O)c1 [Example 62, 4-Benzyl-6-chloro-2-(3-methoxy-phenyl)-1,1-dioxo-8-piperazin-1-yl-1,4-dihydro-2H-1λ^6-benzo[1,2,4]thiadiazin-3-one]",5590 nM,3170 nM,,926 nM,4960 nM,> 10000 nM,10.2 nM,10.2 nM,2370 nM,> 10000 nM,> 10000 nM
